Assay results: patent publication US7253187B2, “Heterocyclic inhibitors of ERK2 and uses thereof” (Vertex Pharmaceuticals Incorporated, priority 2001, dated 2007)

Columns and labels:
[1] = test system: Colon cancer cells (HT-29 cell line); assay: ERK2 inhibition: cell proliferation assay (3H-thymidine uptake); assay type: cell-based; settings: Homo sapiens, 3 days
Description: Compounds may be assayed for the inhibition of ERK2 by a cell proliferation assay. […] Colon cancer cells (HT-29 cell line) are added to each of 84-wells of a 96 well plate at a seeding density of 10,000 cells/well/150 μL. The cells are allowed to attach to the plate by incubating at 37° C. for 2 hours. […] The test compound solution (50 μL) is added to each of 72 cell-containing wells. To the 12 remaining cell-containing wells, only complete media (200 μL) is added to form a control group in order to measure maximal proliferation. To the remaining 12 empty wells, complete media is added to form a vehicle control group in order to measure background. The plates are incubated at 37° C. for 3 days. A stock solution of ^3H-thymidine (1 mCi/mL, New England Nuclear, Boston, Mass.) is diluted to 20 μCi/mL in RPMI medium then 20 μL of this solution is added to each well. The plates are further incubated at 37° C. for 8 hours then harvested and analyzed for ^3H-thymidine uptake using a liquid scintillation counter.

GSK-3β (AA 1–420) = biological target: T1, GSK-3β (AA 1–420) (Homo sapiens, UniProt P49841); assay: GSK-3 inhibition assay (coupled enzyme system); assay type: biochemical; settings: read-out: GSK3 Inhibitory Activity (Ki class)
T1 construct: GSK-3β (AA 1–420)
T1 sequence (P49841 whole entry, species assumed, the tested form may be a part): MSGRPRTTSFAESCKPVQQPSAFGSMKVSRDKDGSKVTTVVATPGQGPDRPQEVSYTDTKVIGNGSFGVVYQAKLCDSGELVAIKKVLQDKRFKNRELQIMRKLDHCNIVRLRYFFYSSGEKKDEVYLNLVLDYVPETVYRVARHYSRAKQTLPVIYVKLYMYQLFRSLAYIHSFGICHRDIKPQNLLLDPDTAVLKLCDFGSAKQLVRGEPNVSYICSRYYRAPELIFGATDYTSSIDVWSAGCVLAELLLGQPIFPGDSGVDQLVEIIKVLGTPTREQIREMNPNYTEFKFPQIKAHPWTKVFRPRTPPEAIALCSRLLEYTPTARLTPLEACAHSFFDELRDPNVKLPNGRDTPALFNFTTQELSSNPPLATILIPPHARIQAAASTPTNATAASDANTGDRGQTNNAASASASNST
Procedure, shortened: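 ADP production read via pyruvate kinase/lactate dehydrogenase–coupled NADH consumption over 10 min at 30 °C. Ki derived from rates versus inhibitor concentration.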

Aurora-2 = biological target: T2, Aurora-2 (Homo sapiens, UniProt O14965); assay: Aurora-2 inhibition assay (coupled enzyme assay); assay type: biochemical
T2 sequence (O14965 1-403): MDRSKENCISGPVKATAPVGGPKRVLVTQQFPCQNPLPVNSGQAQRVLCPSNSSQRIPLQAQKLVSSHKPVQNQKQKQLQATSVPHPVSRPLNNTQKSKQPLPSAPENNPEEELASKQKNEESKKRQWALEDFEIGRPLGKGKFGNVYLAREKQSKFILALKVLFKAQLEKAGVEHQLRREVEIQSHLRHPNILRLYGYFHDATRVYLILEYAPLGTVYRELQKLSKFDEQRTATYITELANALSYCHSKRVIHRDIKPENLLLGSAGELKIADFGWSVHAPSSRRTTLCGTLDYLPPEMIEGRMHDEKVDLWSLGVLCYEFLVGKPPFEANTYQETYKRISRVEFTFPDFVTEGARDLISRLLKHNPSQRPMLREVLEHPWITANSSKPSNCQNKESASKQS
Description: Compounds were screened in the following manner for their ability to inhibit Aurora-2 using a standard coupled enzyme assay (Fox et al (1998) Protein Sci 7, 2249).
To an assay stock buffer solution containing 0.1M HEPES 7.5, 10 mM MgCl2, 1 mM DTT, 25 mM NaCl, 2.5 mM phosphoenolpyruvate, […], 30 mg/ml pyruvate kinase, 10 mg/ml lactate dehydrogenase, […], and 800 μM peptide (LRRASLG, American Peptide, Sunnyvale, Calif.) was added a DMSO solution of a compound of the present invention to a final concentration of 30 μM. The resulting mixture was incubated at 30° C. for 10 min. The reaction was initiated by the addition of 10 μL of Aurora-2 stock solution to give a final concentration of 70 nM in the assay. The rates of reaction were obtained by monitoring absorbance at 340 nm over a 5 minute read time at 30° C. using a BioRad Ultramark plate reader (Hercules, Calif.). The Ki values were determined from the rate data as a function of inhibitor concentration.

ERK2 = ERK2 (Homo sapiens, UniProt P28482); assay: ERK2 inhibition assay (spectrophotometric coupled-enzyme assay); assay type: biochemical; settings: read-out: ERK2 Inhibitory Activity (Ki class D-F)
ERK2, sequence (P28482 whole entry): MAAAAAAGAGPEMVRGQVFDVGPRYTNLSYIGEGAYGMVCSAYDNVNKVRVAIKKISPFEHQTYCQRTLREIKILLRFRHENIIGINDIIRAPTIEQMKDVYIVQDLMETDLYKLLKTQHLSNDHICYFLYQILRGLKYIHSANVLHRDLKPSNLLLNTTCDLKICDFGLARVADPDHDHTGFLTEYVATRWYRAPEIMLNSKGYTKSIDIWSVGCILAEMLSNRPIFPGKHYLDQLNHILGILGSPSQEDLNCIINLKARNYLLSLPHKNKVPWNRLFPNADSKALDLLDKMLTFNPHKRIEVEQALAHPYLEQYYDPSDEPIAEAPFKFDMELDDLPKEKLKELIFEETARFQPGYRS
Description: The IC50 was evaluated from the rate data as a function of inhibitor concentration. […] The compound numbers correspond to the compound numbers in Table 1.

AKT3 = AKT3 (Homo sapiens, UniProt Q9Y243); assay: AKT3 inhibition assay (coupled enzyme assay); assay type: biochemical
AKT3, sequence (Q9Y243 whole entry, species assumed): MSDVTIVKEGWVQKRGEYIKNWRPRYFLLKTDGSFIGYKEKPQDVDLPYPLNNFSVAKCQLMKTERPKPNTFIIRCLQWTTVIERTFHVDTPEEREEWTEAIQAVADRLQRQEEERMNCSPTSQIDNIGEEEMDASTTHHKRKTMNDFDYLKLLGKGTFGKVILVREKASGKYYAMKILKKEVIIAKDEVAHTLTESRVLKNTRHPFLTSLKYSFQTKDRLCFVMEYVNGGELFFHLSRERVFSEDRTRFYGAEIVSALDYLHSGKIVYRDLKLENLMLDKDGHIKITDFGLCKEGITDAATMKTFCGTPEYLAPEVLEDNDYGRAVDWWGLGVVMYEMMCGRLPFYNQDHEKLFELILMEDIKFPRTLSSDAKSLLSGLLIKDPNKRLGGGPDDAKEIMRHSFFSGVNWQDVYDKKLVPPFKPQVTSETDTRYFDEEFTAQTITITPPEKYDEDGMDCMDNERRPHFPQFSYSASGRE
Description: Compounds were screened for their ability to inhibit AKT3 using a standard coupled enzyme assay (Fox et al., Protein Sci., (1998) 7, 2249). Assays were carried out in a mixture of 100 mM HEPES 7.5, 10 mM MgCl2, 25 mM NaCl , 1 mM DTT and 1.5% DMSO. Final substrate concentrations in the assay were 170 μM ATP (Sigma Chemicals) and 200 μM peptide (RPRAATF, American Peptide, Sunnyvale, Calif.). Assays were carried out at 30° C. and 45 nM AKT3. Final concentrations of the components of the coupled enzyme system were 2.5 mM phosphoenolpyruvate, 300 μM NADH, 30 μg/ML pyruvate kinase and 10 μg/ml lactate dehydrogenase.
An assay stock buffer solution was prepared containing all of the reagents listed above, with the exception of AKT3, DTT, and the test compound of interest. 56 μl of the stock solution was placed in a 384 well plate followed by addition of 1 μl of 2 mM DMSO stock containing the test compound (final compound concentration 30 μM). The plate was preincubated for about 10 minutes at 30° C. and the reaction initiated by addition of 10 μl of enzyme (final concentration 45 nM) and 1 mM DTT. Rates of reaction were obtained using a BioRad Ultramark plate reader (Hercules, Calif.) over a 5 minute read time at 30° C.

| Compound | IC50 [1] [nM] | Ki (GSK-3β (AA 1–420)) [nM] | found to inhibit Aurora-2 (Aurora-2) | Ki (ERK2) [nM] | inhibit AKT3 (AKT3) |
| --- | --- | --- | --- | --- | --- |
| Cc1cnc(Nc2cccc(F)c2)nc1-c1c[nH]c(C(=O)NC(CO)c2ccccc2)c1 (stereo not drawn) [III-a-136, 4-[2-(3-Fluoro-phenylamino)-5-methyl-pyrimidin-4-yl]-1H-pyrrole-2-carboxylic acid (2-hydroxy-1-phenyl-ethyl)-amide] | < 100 | < 100 | found to inhibit Aurora-2 | – | – |
| Cc1cnc(Nc2ccc3c(c2)OCO3)nc1-c1c[nH]c(C(=O)NC(CO)c2ccccc2)c1 (stereo not drawn) [III-a-139, 4-[2-(Benzo[1,3]dioxol-5-ylamino)-5-methyl-pyrimidin-4-yl]-1H-pyrrole-2-carboxylic acid (2-hydroxy-1-phenyl-ethyl)-amide] | < 100 | < 100 | found to inhibit Aurora-2 | < 100 | – |
| Cc1cnc(NC#N)nc1-c1c[nH]c(C(=O)NC(CO)c2ccccc2)c1 (stereo not drawn) [III-a-238, 4-(2-Cyanoamino-5-methyl-pyrimidin-4-yl)-1H-pyrrole-2-carboxylic acid (2-hydroxy-1-phenyl-ethyl)-amide] | – | – | – | < 100 | inhibit AKT3 |
